From patent publication US10550111B2, “Pyrimidine urea compound containing isoxazolines and use thereof” (SHENYANG SINOCHEM AGROCHEMICALS R&D CO., LTD, priority 2014, dated 2020)

Assays:
Format in all cases: in vivo
[1] = tested on: broad-leaf weeds and grass weeds; test: General screening of herbicidal activity in greenhouse; details: 1000 g a.i./hm^2
How it was run: (§1)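 Visual growth inhibition rating (0 no effect to 100 all weeds dead or not emerged) after track-sprayer application (500 L/hm²) of emulsifiable concentrate. Treatments either pre-emergence, 24 h after sowing, or post-emergence at 2–3-leaf grass and 2–4-leaf broad-leaf stage, greenhouse-grown.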

[2] = tested on: Zinnia elegans Jacq.; test: Bioassay of herbicidal activity in greenhouse (further screening)
How it was run: as §1

[3] = tested on: Abutilon theophrasti Medic.; test: as above
How it was run: as §1

[4] = tested on: Echinochloa crus-galli (L.) Beauv.; test: as above
How it was run: as §1

[5] = tested on: Setaria glauca (L.) Beauv.; test: as above
How it was run: as §1

[6] = pre-emergence, dose 600 g a.i./hm^2

Structure (SMILES)	pre-emergence and post-emergence herbicidal activity against broad-leaf weeds and grass weeds [1]	Growth inhibition rate, Post-emergence treatment, Zinnia elegans Jacq. ([2]; dose 7.5 g a.i./hm^2)	Growth inhibition rate, Post-emergence treatment, Zinnia elegans Jacq. ([2]; dose 15 g a.i./hm^2)	Growth inhibition rate, Post-emergence treatment, Zinnia elegans Jacq. ([2]; dose 30.0 g a.i./hm^2)	Growth inhibition rate, Post-emergence treatment, Zinnia elegans Jacq. ([2]; dose 60.0 g a.i./hm^2)	Growth inhibition rate, Post-emergence treatment, Zinnia elegans Jacq. ([2]; dose 120.0 g a.i./hm^2)	Growth inhibition rate, Post-emergence treatment, Abutilon theophrasti Medic. ([3]; dose 7.5 g a.i./hm^2)	Growth inhibition rate, Post-emergence treatment, Abutilon theophrasti Medic. ([3]; dose 15 g a.i./hm^2)	Growth inhibition rate, Post-emergence treatment, Abutilon theophrasti Medic. ([3]; dose 30.0 g a.i./hm^2)	Growth inhibition rate, Post-emergence treatment, Abutilon theophrasti Medic. ([3]; dose 60.0 g a.i./hm^2)	Growth inhibition rate, Post-emergence treatment, Abutilon theophrasti Medic. ([3]; dose 120.0 g a.i./hm^2)	Growth inhibition rate, Post-emergence treatment, Echinochloa crus-galli (L.) Beauv. ([4]; dose 7.5 g a.i./hm^2)	Growth inhibition rate, Post-emergence treatment, Echinochloa crus-galli (L.) Beauv. ([4]; dose 15 g a.i./hm^2)	Growth inhibition rate, Post-emergence treatment, Echinochloa crus-galli (L.) Beauv. ([4]; dose 30.0 g a.i./hm^2)	Growth inhibition rate, Post-emergence treatment, Echinochloa crus-galli (L.) Beauv. ([4]; dose 60.0 g a.i./hm^2)	Growth inhibition rate, Post-emergence treatment, Echinochloa crus-galli (L.) Beauv. ([4]; dose 120.0 g a.i./hm^2)	Growth inhibition rate, Post-emergence treatment, Setaria glauca (L.) Beauv. ([5]; dose 7.5 g a.i./hm^2)	Growth inhibition rate, Post-emergence treatment, Setaria glauca (L.) Beauv. ([5]; dose 15 g a.i./hm^2)	Growth inhibition rate, Post-emergence treatment, Setaria glauca (L.) Beauv. ([5]; dose 30.0 g a.i./hm^2)	Growth inhibition rate, Post-emergence treatment, Setaria glauca (L.) Beauv. ([5]; dose 60.0 g a.i./hm^2)	further results
Cn1c(C(F)(F)F)cc(=O)n(-c2cc(C3=NOC(C)(C(=O)OCC4CCCO4)C3)c(Cl)cc2F)c1=O (centres unmarked) [Compound 398]	good	65%	90%	100%	100%	100%	98%	98%	100%	100%	100%	65%	75%	95%	100%	100%	55%	95%	100%	100%	Growth inhibition rate, Post-emergence treatment, Setaria glauca (L.) Beauv. ([5]; dose 120.0 g a.i./hm^2): 100%
COCCOC(=O)C1(C)CC(c2cc(-n3c(=O)cc(C(F)(F)F)n(C)c3=O)c(F)cc2Cl)=NO1 (centres unmarked) [Compound 16]	good	98%	100%	100%	100%	100%	75%	98%	100%	100%	100%	50%	80%	100%	100%	100%	75%	98%	100%	100%	Growth inhibition rate, Post-emergence treatment, Setaria glauca (L.) Beauv. ([5]; dose 120.0 g a.i./hm^2): 100%
CC(=O)OCCOC(=O)C1(C)CC(c2cc(-n3c(=O)cc(C(F)(F)F)n(C)c3=O)c(F)cc2Cl)=NO1 (centres unmarked) [Compound 17]	good	45%	55%	65%	90%	100%	95%	98%	100%	100%	100%	30%	60%	100%	100%	100%	55%	60%	100%	100%	Growth inhibition rate, Post-emergence treatment, Zinnia elegans Jacq. ([2]; dose 600 g a.i./hm^2): 100%; Growth inhibition rate, Pre-emergence treatment, Zinnia elegans Jacq. [2, 6]: 90%; Growth inhibition rate, Post-emergence treatment, Abutilon theophrasti Medic. ([3]; dose 600 g a.i./hm^2): 100%; Growth inhibition rate, Pre-emergence treatment, Abutilon theophrasti Medic. [3, 6]: 90%; Growth inhibition rate, Post-emergence treatment, Echinochloa crus-galli (L.) Beauv. ([4]; dose 600 g a.i./hm^2): 100%; Growth inhibition rate, Pre-emergence treatment, Echinochloa crus-galli (L.) Beauv. [4, 6]: 95%; Growth inhibition rate, Post-emergence treatment, Setaria glauca (L.) Beauv. ([5]; dose 120.0 g a.i./hm^2): 100%; Growth inhibition rate, Post-emergence treatment, Setaria glauca (L.) Beauv. ([5]; dose 600 g a.i./hm^2): 100%; Growth inhibition rate, Pre-emergence treatment, Setaria glauca (L.) Beauv. [5, 6]: 85%
